From ChEMBL document CHEMBL1201862, “PubChem BioAssay data set” (2004)
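How tested: cells in 96-well plates exposed to compound for 48 hours at five concentrations. GI50: concentration for 50% inhibition of growth.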 The source made the active and inactive calls. Rule as the data show it: active = GI50 up to about 1.1 µM and inactive = higher.

How the values were obtained:
Assay in all cases: growth of human tumour cells (NCI), 48 h
HT-29 = test system: HT-29
LOX IMVI = test system: LOX IMVI
HOP-62 = test system: HOP-62
KM12 = test system: KM12
RPMI-8226 = test system: RPMI-8226
CCRF-CEM = test system: CCRF-CEM
NCI-H460 = test system: NCI-H460
Malme-3M = test system: Malme-3M
EKVX = test system: EKVX
SF-268 = test system: SF-268
SK-MEL-28 = test system: SK-MEL-28
SK-MEL-5 = test system: SK-MEL-5
UACC-62 = test system: UACC-62
CAKI-1 = test system: CAKI-1
HOP-92 = test system: HOP-92
SR = test system: SR
SW-620 = test system: SW-620

Measured: GI50

COc1ccc(C(=O)CC(=O)C(=O)Nc2ccc(C)c(C)c2)cc1
inactive: HT-29 > 100 µM | LOX IMVI 23.7 µM | HOP-62 > 90.8 µM | KM12 > 100 µM | RPMI-8226 > 47.5 µM | CCRF-CEM 26.5 µM | NCI-H460 > 41.3 µM | Malme-3M > 100 µM | EKVX > 100 µM | SF-268 56.2 µM | SK-MEL-28 > 100 µM | SK-MEL-5 97.9 µM | UACC-62 > 95.5 µM | CAKI-1 > 100 µM | HOP-92 > 51.3 µM | SR > 100 µM | SW-620 28.4 µM

COc1ccc(-c2c(C3=NCCN3)nnn2-c2ccccc2)cc1
inactive: HT-29 91.2 µM | LOX IMVI > 100 µM | HOP-62 > 100 µM | KM12 > 100 µM | RPMI-8226 > 100 µM | CCRF-CEM > 100 µM | NCI-H460 > 100 µM | Malme-3M > 100 µM | EKVX > 100 µM | SF-268 > 100 µM | SK-MEL-28 > 100 µM | SK-MEL-5 > 100 µM | UACC-62 > 100 µM | CAKI-1 > 100 µM | HOP-92 > 100 µM | SR 89.9 µM | SW-620 > 100 µM

CCOc1ccccc1/N=N/c1c(-c2ccccc2)nn(C(=O)CC(=O)Nc2cccc(C)c2)c1-c1ccccc1
inactive: HT-29 39.6 µM | LOX IMVI > 100 µM | HOP-62 > 100 µM | KM12 94 µM | RPMI-8226 > 100 µM | CCRF-CEM > 100 µM | NCI-H460 > 100 µM | Malme-3M > 100 µM | EKVX 56.6 µM | SF-268 74.8 µM | SK-MEL-28 > 100 µM | SK-MEL-5 > 100 µM | UACC-62 > 100 µM | CAKI-1 > 100 µM | HOP-92 > 100 µM | SR > 100 µM | SW-620 > 100 µM

COC1(OC)C2(Cl)C3=CCCC=C3C1(Cl)C(Cl)=C2Cl
inactive: HT-29 20.6 µM | LOX IMVI 15.3 µM | HOP-62 26.3 µM | KM12 34.3 µM | RPMI-8226 12.1 µM | CCRF-CEM 19.8 µM | NCI-H460 26.5 µM | Malme-3M 16.7 µM | EKVX 16.1 µM | SF-268 27.4 µM | SK-MEL-28 30.2 µM | SK-MEL-5 14.3 µM | UACC-62 25.5 µM | CAKI-1 18.9 µM | HOP-92 21.5 µM | SR 18.1 µM | SW-620 17.5 µM
